This note sets out measurements from patent US20230128137A1, “BENZO FIVE-MEMBERED CYCLIC COMPOUND” (MEDSHINE DISCOVERY INC., priority 2020, published 2023).

The test system of one data set is RS4;11 cells. As to the kind of experiment: CTG (CellTiter-Glo) test of inhibition of RS4;11 cell proliferation. The class given is cell-based. The conditions noted are these: Homo sapiens, 72 hours incubation. As for the experimental part:
2.1 Experimental objectives: To obtain the IC50 value of the test compound in RS4;11 cell lines;
2.2 incubation time: 72 hours;
2.3 experimental method: CTG (Cell Titer-Glo™ Luminescent Cell Viability Assay);
a. when the cells were fused to 80%, the cells were collected and counted;
b. RS4; 11 cell suspension was diluted to 5000 cells/well and 20 uls of cell suspension was seeded in each well of 384-well plate;
c. the cell plates were placed back to 37° C. and incubated in a 5% carbon dioxide incubator for 24 hours;
d. the test compound was prepared into DMSO solution, and 5 μL of each was added to the designated well of the test plate, and the final concentration of DMSO solution was 0.5%;
e. initiation cell viability was detected by CTG;
f. the test plate was put back into the incubator and incubated for another 72 hours;
g. after 72 hours incubation, CellTiter-Glo™ luminescent cell viability assay was completed according to the manufacturer's manual;
For orientation: In ATP-based viability assays light output follows the ATP content of the culture.

A further data set deals with T1, Bcl-2 (Homo sapiens, UniProt P10415).
T1 construct: Human recombinant Bcl-2 (amino acid 1-207); purchased Reaction Biology Corporation (RBC) APT-11-441; host or cells: E. coli
The experiment in a line: HTRF competition test, Bcl-2 with FAM-BAK peptide (enzymology experiment). Particulars: 4 nM Bcl-2 and 100 nM FAM-BAK, read-out: IC50 (nM) for inhibition of Bcl-2 enzyme. The format is binding. As to the method:
(§1) This experiment was based on the competition between fluorescently-labeled Bak/Bad/Noxa peptides and GST-labeled Bcl family proteins. The fluorescence detection method based on HTRF was to observe the binding degree by using the fluorescence ratio between Tb-labeled anti-GST and FAM-labeled peptides. This peptide binds to the surface of the Bcl family protein pocket, which is essential for its anti-apoptotic function.
(§2) 1.1 Experimental reagents: analysis buffer: 20 mM potassium phosphate, pH 7.5, 50 mM sodium chloride, 1 mM EDTA, 0.005% Tritonx-100 and 1% DMSO.
(§3) 1.2 Probe: 5,6-FAM-peptide
(§4) 1.4 Experimental Conditions:
4 nM Bcl-2 and 100 nM FAM-BAK
(§5) a) The Bcl enzyme reaction solution was prepared in the newly prepared analysis buffer;
(§6) b) the Bcl enzyme reaction solution was provided;
(§7) c) the compound was first prepared into a 100% dimethyl sulfoxide solution, and then the compound solution was mixed with the Bcl enzyme reaction solution using (Echo550; nanoliter range) technology, and co-incubated for 10 minutes;
(§8) d) the FAM peptide solution was added.
(§9) e) the mixed solution was gently stirred in dark and room temperature, and co-cultured for 10 minutes.
(§10) f) Anti-GST solution was added.
(§11) g) The mixed solution was gently stirred in dark and room temperature, and co-cultured for 1 hour.
(§12) h) The HTRF high-frequency fluorescence ratio was tested, and the IC50 values were calculated.

A further data set concerns the target T2, Bcl-xL (Homo sapiens, UniProt Q07817).
T2 construct: Human recombinant Bcl-xL (amino acid 1-209); purchased Reaction Biology Corporation (RBC) APT-11-442; host or cells: E. coli
The experiment in a line: HTRF competition test, Bcl-xL with FAM-Bad peptide (enzymology experiment). The format is binding. Particulars: 3 nM Bcl-xL and 40 nM FAM-Bad, read-out: IC50 (nM) for inhibition of Bcl-xL enzyme. As to the method:
as §1, §2, §3, §4
3 nM Bcl-xL and 40 nM FAM-Bad
as §5, §6, §7, §8, §9, §10, §11, §12
In general terms: In TR-FRET formats the signal depends on donor and acceptor labels being close together.

Data set [1] in a line: Liver microsome metabolic stability in vitro, beagle dog. The class given is in vitro ADME. The conditions noted are these: beagle dog liver microsomes; for Remaining (T = 60 min): 60 min incubation. As for the experimental part:
(§13) 3.2 preparation of nicotinamide adenine dinucleotide phosphate cofactor solution: an appropriate amount of NADPH powder was weighed and diluted into 10 mM magnesium chloride solution (working solution concentration: 10 unit/mL; final concentration of reaction system: 1 unit/mL);
(§14) 3.3 preparation of liver microsomes: an appropriate concentration working solution of liver microsomes (human, SD rat, CD-1 mouse, beagle dog) was prepared in 100 mM potassium phosphate buffer;
(§15) 3.4 preparation of quenching solution: cold (4° C.) acetonitrile containing 200 ng/mL tolbutamide and 200 ng/mL labetalol as internal standard (IS) was used as quenching solution;
(§16) 3.5 experimental operation:
(§17) a. empty “incubation” plates T60 and NCF60 were preheated for 10 minutes;
(§18) b. the liver microsomes were diluted to 0.56 mg/mL with 100 mM phosphate buffer;
(§19) c. 445 μL of microsomal working solution (0.56 mg/mL) was transferred to the preheated “incubation” plates T60 and NCF60, and then the“incubation” plates T60 and NCF60 were preincubated for 10 min with continuous shaking at 37° C. 54 μL of liver microsomes were transferred to a blank plate, and 6 μL of NAPDH cofactor was added to the blank plate, and then 180 μL of quenching solution was added thereto;
(§20) e. for NCF60 plate, 50 μL of buffer was added thereto and the mixture was fully mixed for three times. Timing was started; the plate was shaken at 37° C. for 60 minutes;
(§21) f. in “quenching” plate TO, 180 μL of quenching solution and 6 μL of NAPDH cofactor were addded to make sure that the plate was cooled down to prevent evaporation;
(§22) g. for T60 plates, the mixture was fully mixed for three times, and 54 μL of mixture was immediately transferred to the “quenching” plate at the 0 min time point. 44 μL of NAPDH cofactor was then added to the culture plate (T60). Timing was started; the plate was shaken at 37° C. for 60 minutes;
(§23) h. at 5, 10, 20, 30 and 60 min, 180 μL of quenching solution was added to the “quenching” plate, and the mixture was mixed for one time, and 60 μL of sample was continuously transferred from the T60 plate to the “quenching” plate at each time point;
(§24) i. for NCF60: the mixture was mixed for one time, and 60 μL of sample was transferred from the NCF60 culture dish to the “quenching” plate containing quenching solution at 60 minutes time point;
(§25) j. all sampling plates were shaked for 10 minutes, then centrifuged at 4000 rpm for 20 minutes at 4° C.;
(§26) k. 60 μL of supernatant was transferred into 180 μL of HPLC water and stirred with a plate shaker for 10 min;
(§27) 1. before LC-MS/MS analysis, each bioanalysis plate was sealed and shaked for 10 minutes.
On the technique in general: Microsomes from liver hold many membrane-bound enzymes, among them those of drug oxidation.

Data set [2] is described as follows: Liver microsome metabolic stability in vitro, CD-1 mouse. The class given is in vitro ADME. The conditions noted are these: CD-1 mouse liver microsomes; for Remaining (T = 60 min): 60 min incubation. As to the method: as §13, §14, §15, §16, §17, §18, §19, §20, §21, §22, §23, §24, §25, §26, §27
Data set [3] is described as follows: Liver microsome metabolic stability in vitro, human. The class given is in vitro ADME. The conditions noted are these: human liver microsomes; for Remaining (T = 60 min): 60 min incubation. As to the method: as §13, §14, §15, §16, §17, §18, §19, §20, §21, §22, §23, §24, §25, §26, §27
Data set [4] can be described thus: Liver microsome metabolic stability in vitro, SD rat. The conditions noted are these: SD rat liver microsomes; for Remaining (T = 60 min): 60 min incubation. The format is in vitro ADME. As to the method:
as §13, §14, §15, §16, §17, §18, §19, §20, §21, §22, §23, §24, §25, §26, §27

T2 sequence (Q07817 1-209): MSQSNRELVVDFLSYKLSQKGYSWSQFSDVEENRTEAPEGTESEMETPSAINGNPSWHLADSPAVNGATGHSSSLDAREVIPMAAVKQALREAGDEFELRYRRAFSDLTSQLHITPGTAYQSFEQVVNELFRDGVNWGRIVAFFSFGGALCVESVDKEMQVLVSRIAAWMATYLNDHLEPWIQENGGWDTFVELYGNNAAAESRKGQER
T1 sequence (P10415 1-207): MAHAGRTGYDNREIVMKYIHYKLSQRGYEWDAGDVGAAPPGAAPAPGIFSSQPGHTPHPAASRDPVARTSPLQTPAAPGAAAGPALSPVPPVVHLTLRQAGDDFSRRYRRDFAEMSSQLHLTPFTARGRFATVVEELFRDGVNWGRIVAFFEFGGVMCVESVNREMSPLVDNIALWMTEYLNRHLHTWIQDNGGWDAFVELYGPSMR

In general, IC50 refers to the concentration that inhibits the measured activity by half. Take `CC1(C)CCC(CN2CC=C(c3ccc(C(=O)NS(=O)(=O)c4cc([N+](=O)[O-])c(NCC5CCOCC5)c5[nH]cnc45)c(Oc4ccc5[nH]ccc5c4)c3)CC2)=C(c2ccc(Cl)cc2)C1` [Compound 5]: the half-inhibitory concentration (IC50) in the data set on RS4;11 cells was determined as 10.2 nM; at Bcl-2 it was 2.6 nM; on Bcl-xL, 504 nM.
In general, CLint scaled refers to the capacity of the preparation to metabolise the compound, expressed as a volume cleared per time. One may read the half-life as the time needed for the level to fall by half in the phase considered. Take `C[C@]12CC[C@H]3[C@@H](CCC4=CC(=O)CC[C@@]43C)[C@@H]1CC[C@@H]2O` [Testosterone]: the CLint scaled at 1 µM in data set [1] came out at 81 mL/min/kg; in data set [2], 1370 mL/min/kg; in data set [3] (human), 155 mL/min/kg; in data set [4], 2180 mL/min/kg. Besides, the figures for the T1/2 in data set [1], in data set [2] and in data set [4] were 24.6 min, 4.0 min and 1.1 min, respectively. Besides, the “Remaining (T = 60 min)” value in data set [1] is reported as 19%; in data set [2], 0.0%; in data set [3], 5.7%; in data set [4], 0.0%. The half-life at 1 µM in data set [3] (human) turned out to be 8.9 min.
As to `Cn1cnc2c(S(=O)(=O)NC(=O)c3ccc(N4CCN(CC5=C(c6ccc(Cl)cc6)CC(C)(C)CC5)CC4)cc3Oc3cnc4[nH]ccc4c3)cc([N+](=O)[O-])c(NCC3CCOCC3)c21` [Compound 8], the IC50 in the data set on RS4;11 cells was found to be 6.5 nM; at Bcl-2 it was 1.3 nM; on Bcl-xL, 1110 nM.
For `O=C(O)Cc1ccccc1Nc1c(Cl)cccc1Cl` [Diclofenac], in data set [1], the CLint scaled at 1 µM is under 13.8 mL/min/kg, the half-life at 1 µM was over 145 min and the “Remaining (T = 60 min)” value is given as 101%. Also, in data set [2], the half-life at 1 µM is 63.5 min and the “Remaining (T = 60 min)” value came to 53.0%. In addition, in data set [3], the “Remaining (T = 60 min)” value turned out to be 0.0%. In data set [4], the intrinsic clearance (CLint scaled) at 1 µM worked out at 174 mL/min/kg, the T1/2 is 14.4 min and the “Remaining (T = 60 min)” value was 5.2%.
For `Cc1nc2c(S(=O)(=O)NC(=O)c3ccc(N4CCN(CC5=C(c6ccc(Cl)cc6)CC(C)(C)CC5)CC4)cc3Oc3cnc4[nH]ccc4c3)cc([N+](=O)[O-])c(NCC3CCOCC3)c2[nH]1` [Compound 9], the IC50 in the data set on RS4;11 cells is 1.9 nM; at Bcl-2, 3.6 nM; on Bcl-xL, 326 nM.
Turning to `CC1(C)CCC(CN2CCN(c3ccc(C(=O)NS(=O)(=O)c4cc([N+](=O)[O-])c(NCC5CCOCC5)c5[nH]ccc45)c(Oc4cnc5[nH]ccc5c4)c3)CC2)=C(c2ccc(Cl)cc2)C1` [Compound 1], the concentration for half-maximal inhibition (IC50) in the data set with RS4;11 cells is 1.4 nM.
On to `Cn1cnc2c(NCC3CCOCC3)c([N+](=O)[O-])cc(S(=O)(=O)NC(=O)c3ccc(N4CCN(CC5=C(c6ccc(Cl)cc6)CC(C)(C)CC5)CC4)cc3Oc3cnc4[nH]ccc4c3)c21` [Compound 6], for which the IC50 turned out to be 4.6 nM in the data set with RS4;11 cells, 2.4 nM on Bcl-2 and 173 nM on Bcl-xL.
In the data set with RS4;11 cells, `CC1(C)CCC(CN2CCN(c3ccc(C(=O)NS(=O)(=O)c4cc([N+](=O)[O-])c(NCC5COCCO5)c5[nH]cnc45)c(Oc4cnc5[nH]ccc5c4)c3)CC2)=C(c2ccc(Cl)cc2)C1` (centres unmarked) [Compound 7] gave a half-inhibitory concentration (IC50) of 6.8 nM.
